How the values were obtained:
[1] = tested on: NIH 3T3 mouse fibroblasts; assay: Decorin collagen gel contraction assay, NIH 3T3 cells; format: cell-based; settings: for collagen gel contraction versus control level: 10 ng/ml PDGF, 20 ng/ml acidic FGF, without decorin
Description: NIH 3T3 mouse fibroblasts (ATCC #CRL 1658) and WI38 human fibroblasts (ATCC #CL75) were used in these assays and passaged in culture as prescribed.
Cells were collected by washing the cells with sterile PBS, then incubating the cells for 5 min at 37° C. with trypsin-EDTA (200 mg versene and 500 mg trypsin/liter Hank's balanced salt solution; Gibco/BRL; Gaithersburg MD). Following incubation, cells were removed by aspiration with a pipet and DMEM supplemented with 10% FBS (BioWhittaker; Walkersville Md.) was added to neutralize the trypsin. Cells were centrifuged for 8 min at 1200 rpm, decanted, washed 3× with serum-free DMEM and resuspended in serum-free DMEM to the following concentrations: NIH 3T3 cells, 3.0×10^6 cells/ml; WI38 cells, 1.0×10^6 cell/ml.
The following reagents were added on ice to generate a total of 24 gels: 3.6 ml 5× DMEM (Gibco/BRL), 1.0 ml 1M HEPES (Sigma), 0.74 ml 0.5M NaOH, 2.0 ml cell suspension in serum-free DMEM, 7.6 ml rat tail collagen I (3.81 mg/ml; Collaborative Research). The collagen mixture was quickly added to a mixture of 4.8 ml decorin and water to yield the appropriate decorin concentration and 0.7 ml was added to each well of a 24 well microtiter dish that previously had been coated with 2% bovine serum albumin in PBS. The gels were allowed to solidify for 1 hr at 37° C. in a humidified incubator, then were released from the edges of the well by tapping or by rimming with a pipet tip.
Gels were transferred aseptically using forceps from the microtiter plate into a Nunc six well plate. Three gels were transferred into each 33 mm well. Prior to transfer, each well received 1 ng/ml TGFβ (from porcine platelets; R&D Systems; Minneapolis Minn.). […] The plates were rocked in a humidified incubator at 37° C. and 7% CO2 for the length of the experiment. The area of the gels was measured daily using photographs from an image analyzer and planimetry.

[2] = tested on: CTT-18 cells; assay: Peptide collagen gel contraction assay; format: cell-based, human; settings: FIG. 4, gel area over time
Description: CTT-18 cells, which are a normal human colon fibroblast cell line available from ATCC (#1459-CRL), were used in the gel contraction assays. Subconfluent CTT-18 cells were harvested by trypsinization, neutralized with soybean trypsin inhibitor, then washed several times with serum-free Dulbecco's modified Eagle's medium (DMEM). The cells were resuspended at 5×10^6 cells/ml in DMEM.
The collagen solution was prepared by combining the following reagents in the stated order: 1× DMEM, 1× insulin/transferrin/selenium (ITS; Collaborative Research; Bedford Mass.), 25 mM HEPES, 2.5 mg/ml rat tail collagen I (Collaborative Research). The solution was adjusted to pH 7.4 using 2M NaOH and deionized water was added to the appropriate final volume. Finally, 5×10^4 cells/ml (DMEM) were added to the solution and 0.6 ml of the combined solution was added to each well of a 24 well plate. The solution was allowed to gel for 1 hr at 37° C.
Peptides were diluted to 4.5 mM in 1× DMEM/1× ITS/1× penicillin/1× streptomycin and the solution was adjusted to pH 7.4. Each gel was overlayed with 0.6 ml peptide solution and the gel periphery was rimmed to release the gel from the edge of the well. The gels were incubated at 37° C. and each gel area was monitored daily by planimetry using a computerized planimetry program (Digitize, Macintosh).
In addition to determining the area of a gel, a replicate gel for each experimental condition was examined each day for cell viability. To determine cell viability, the overlay media was removed and replaced with 4 mg/ml collagenase type 2 (Worthington Biochemical; Freehold N.J.) in collagen digestion buffer (0.13M NaCl, 0.01M Ca acetate, 0.02M HEPES, pH 7.2). The sample was incubated at 37° C. until digestion was complete (about 1 hr). The solution was centrifuged at 3000 rpm in a microcentrifuge for 5 min and the pellet resuspended in trypsin/EDTA and incubated for 20 min at 37° C. The solution again was centrifuged, the pellet resuspended in 40 μl 0.4% trypan blue and the viable cells were counted in a hemocytometer. In general, the variations in cell viability were slight, and it was unnecessary to correct the gel contraction results due to significant differences in cell viability.

[3] = tested on: collagen gels; settings: Grinnell et al. 1989; U.S. Pat. No. 4,957,902; cited from earlier work
[4] = tested on: collagen; assay: Effect on collagen fibril structure
[5] = tested on: collagen; assay: Binding to collagen

acidic FGF: acidic fibroblast-derived growth factor (R & D Systems)
collagen gel contraction versus control level ([1]; 1 ng/ml TGFβ, FIG. 6): increased the amount of collagen gel contraction above the control level

N=C(N)NCCC[C@H](N)C(=O)O [mono-arginine, arginine]
inhibition of gel contraction [2]: did not inhibit gel contraction
inhibition of gel contraction ([2]; listed as Arg 1): do not inhibit collagen gel contraction

TGFβ: growth factor from porcine platelets (R&D Systems) that stimulates contraction
collagen gel contraction versus control level ([1]; 1 ng/ml TGFβ, FIG. 6): increased the amount of collagen gel contraction above the control level
contraction of a collagen/NIH 3T3 gel ([1]; 1.0 ng/ml TGFβ, 24 hr, 0 μg/ml decorin): approximately 60%

di-arginine
inhibition of gel contraction [2]: did not inhibit gel contraction
inhibition of gel contraction ([2]; listed as Arg 2): do not inhibit collagen gel contraction

GRGESP
effect on contraction of collagen gels [3]: inhibited contraction of collagen gels

PDGF
collagen gel contraction versus control level ([1]; 1 ng/ml TGFβ, FIG. 6): increased the amount of collagen gel contraction above the control level

tri-arginine
inhibition of gel contraction [2]: did not inhibit gel contraction
inhibition of gel contraction ([2]; listed as Arg 3): do not inhibit collagen gel contraction

B1: decorin: proteoglycan produced by fibroblasts, core protein about 40 kDa; produced in decorin-expressing CHO cells (protein, UniProt P07585 31-359, looked up)
Decorin: DEASGIGPEVPDDRDFEPSLGPVCPFRCQCHLRVVQCSDLGLDKVPKDLPPDTTLLDLQNNKITEIKDGDFKNLKNLHALILVNNKISKVSPGAFTPLVKLERLYLSKNQLKELPEKMPKTLQELRAHENEITKVRKVTFNGLNQMIVIELGTNPLKSSGIENGAFQGMKKLSYIRIADTNITSIPQGLPPSLTELHLDGNKISRVDAASLKGLNNLAKLGLSFNSISAVDNGSLANTPHLRELHLDNNKLTRVPGGLAEHKYIQVVYLHNNNISVVGSSDFCPPGHNTKKASYSGVSLFSNPVQYWEIQPSTFRCVYVRSAIQLGNYK
gel contraction in the presence of growth factors ([1]; 200 μg decorin per ml gel, 1 ng/ml TGFβ, 10 ng/ml PDGF or 20 ng/ml acidic FGF, FIG. 6): reduced or inhibited the level of gel contraction
gel contraction at 200 μg per ml decorin ([1]; collagen/NIH 3T3 gel, 1 ng/ml TGFβ, 24 hr): no gel contraction was observed
gel contraction with increasing concentrations of decorin in the gel ([1]; collagen/NIH 3T3 gel, 1 ng/ml TGFβ, 24 hr, FIG. 5): reduced or inhibited gel contraction

B2: Decorin that had been reduced and alkylated: decorin incubated with dithiothreitol, then iodoacetamide (protein, UniProt P07585 31-359, looked up)
Decorin: B1 Decorin
modifications: reduced and alkylated
notes: decorin incubated with dithiothreitol, then iodoacetamide
gel contraction ([1]; reduced and alkylated form, data not shown): inhibited gel contraction

B3: denatured decorin: denatured decorin, compared with native/intact decorin (protein, UniProt P07585 31-359, looked up)
Decorin: B1 Decorin
modifications: denatured
effect on fibril structure [4]: does not affect fibril structure
inhibition of gel contraction compared with intact decorin ([1]; cells not given): retains some ability to inhibit gel contraction
collagen binding [5]: binds collagen to the same extent as nondenatured decorin

B4: biglycan: proteoglycan with core protein sequence closely related to decorin (protein, UniProt P21810 38-368, looked up)
Biglycan: DEEASGADTSGVLDPDSVTPTYSAMCPFGCHCHLRVVQCSDLGLKSVPKEISPDTTLLDLQNNDISELRKDDFKGLQHLYALVLVNNKISKIHEKAFSPLRKLQKLYISKNHLVEIPPNLPSSLVELRIHDNRIRKVPKGVFSGLRNMNCIEMGGNPLENSGFEPGAFDGLKLNYLRISEAKLTGIPKDLPETLNELHLDHNKIQAIELEDLLRYSKLYRLGLGHNQIRMIENGSLSFLPTLRELHLDNNKLARVPSGLPDLKLLQVVYLHSNNITKVGVNDFCPMGFGVKRAYYNGISLFNNPVPYWEVQPATFRCVTDRLAIQFGNYKK
collagen binding [5]: can bind to collagen in the gel contraction assays
